Earlier results in patent publication US20200040275A1, “AVIATION FUEL WITH A RENEWABLE OXYGENATE” (Swift Fuels, LLC, priority 2014, published 2020).

How the values were obtained:
[1] = SDS data from third-party compliance reports

**Q.** What does the source list for CC(C)c1ccc(N)cc1 (single isomer, unassigned) [Cumidine, 4-isopropylaniline]?
**A.** LD50 (rat, oral) (rat): 757 mg/kg; OSHA Hazards [1]: Irritant. Causes respiratory

**Q.** With CCOC(C)(C)C [ETBE, ethyl tert-butyl ether] as the molecule, how does the water solubility read?
**A.** 1.2 g/100 g

**Q.** And the “OSHA Hazards” value [1]?
**A.** Irritant

**Q.** For Cc1cccc(N)c1 [m-Toluidine], which “OSHA Hazards” value [1] is on record?
**A.** Toxic. Causes cyanosis.
